In patent publication US4575497A, “3, 3", 4"-Tri-O-acylspiramycin I” (Kyowa Hakko Kogyo Co., Ltd, priority 1983, dated 1986):

Key:
[1] = tested on: Streptococcus pneumoniae Type III; test: Infection-healing effect, mice protection test (Test Example); format: in vivo; conditions: for Number of survived mice out of 10 mice: 60 mg/kg in 0.3% CMC, orally just after i.p. inoculation (1.1×10^2 cfu/mouse), 7th day; for therapeutic effect in an infection-healing test in mice: Streptococcus pneumoniae Type III, compared with acetylspiramycin and 3, 3", 4"-tri-O-acetylspiramycin I
Method: A test example of the therapeutic effect of Compound (I) in experimental test mice protection test will be given below:
Animal: ddY-strain male mice, 19±lg, one group consisting of ten mice.
Test bacterium: Streptococcus pneumoniae Type III, Inoculation rate: 1.1×10^2 cfu/mouse.
The predetermined amount of the precultured test bacteria was inoculated via i.p.
Medicament administration: 60 mg/kg of each of the medicaments was suspended in 0.3% CMC, and orally administered just after the inoculation of bacteria.

Bacillus cereus KB143 = test: MIC against Bacillus cereus KB143 (D); format: cell-based; conditions: Heart infusion agar (pH 7.0)
Excerpt: (§1) The minimum inhibitory concentration (MIC) of Compound (I) is shown in Table 4 in comparison with that of spiramycin I.
(§2) Minimum inhibitory concentration (MIC, μ g/ml)
(§3) Remark: medium used: Heart infusion agar (pH 7.0)
D: Bacillus cereus KB143

Bacillus subtilis KB211 = test: MIC against Bacillus subtilis KB211 (C); format: cell-based; conditions: Heart infusion agar (pH 7.0)
Excerpt: as §1, §2, §3
C: Bacillus subtilis KB211

Escherichia coli KB213 = test: MIC against Escherichia coli KB213 (F); format: cell-based; conditions: Heart infusion agar (pH 7.0)
Excerpt: as §1, §2, §3
F: Escherichia coli KB213

[2] = tested on: Staphylococcus aureus KB210; test: MIC against Staphylococcus aureus KB210 (A); format: cell-based; conditions: Heart infusion agar (pH 7.0)
Excerpt: as §1, §2, §3
A: Staphylococcus aureus KB210

[3] = tested on: Klebsiella pneumoniae KB214; test: MIC against Klebsiella pneumoniae KB214 (G); format: cell-based; conditions: Heart infusion agar (pH 7.0)
Excerpt: as §1, §2, §3
G: Klebsiella pneumoniae KB214

[4] = tested on: Staphylococcus aureus KB199; test: MIC against Staphylococcus aureus KB199 (B); format: cell-based; conditions: Heart infusion agar (pH 7.0)
Excerpt: as §1, §2, §3
B: Staphylococcus aureus KB199

Micrococcus ruteus KB212 = test: MIC against Micrococcus ruteus KB212 (E); format: cell-based; conditions: Heart infusion agar (pH 7.0)
Excerpt: as §1, §2, §3
E: Micrococcus ruteus KB212

[5] = tested on: Streptococcus pneumoniae Type III; test: Healing effect on test infection in mice, ED50 (Reference Example 1); format: in vivo; conditions: oral, 0.3% CMC, just after i.p. inoculation; Probit method, survived animals on the 7th day
Excerpt: Comparison of healing effects of acetylspiramycin and 3, 3", 4"-tri-O-acetylspiramycin I on test infection in mice
Animal : ddY-strain male mice, 19±lg, one group consisting of ten mice.
Test bacterium : Streptococcus pneumoniae Type III. Inoculation rate : 1.1×10^2 cfu/mouse.
The predetermined amount of the precultured test bacteria was inoculated via i.p..
Medicament administration : Each of the medicaments was suspended in 0.3% CMC, and orally administered just after the inoculation of bacteria.

Row | SMILES | Number of survived mice out of 10 mice [1] | Minimum inhibitory concentration (MIC) (Bacillus cereus KB143) | Minimum inhibitory concentration (MIC) (Bacillus subtilis KB211) | Minimum inhibitory concentration (MIC) (Escherichia coli KB213) | Minimum inhibitory concentration (MIC) [2] | Minimum inhibitory concentration (MIC) [3] | Minimum inhibitory concentration (MIC) [4] | Minimum inhibitory concentration (MIC) (Micrococcus ruteus KB212) | therapeutic effect in an infection-healing test in mice [1] | ED50 [5]
1 | CCC(=O)OC1CC(=O)OC(C)CC=CC=CC(OC2CCC(N(C)C)C(C)O2)C(C)CC(CC=O)C(OC2OC(C)C(OC3CC(C)(OC(=O)CC)C(OC(C)=O)C(C)O3)C(N(C)C)C2O)C1OC (stereo not drawn) [Compound 3, 3,3"-di-O-propionyl-4"-O-acetylspiramycin I] | 5 mice out of 10 mice | 3.12 μ g/ml | 3.12 μ g/ml | > 100 μ g/ml | 3.12 μ g/ml | > 100 μ g/ml | > 100 μ g/ml | < 0.1 μ g/ml |  | 
2 | CCCC(=O)OC1(C)CC(OC2C(C)OC(OC3C(CC=O)CC(C)C(OC4CCC(N(C)C)C(C)O4)C=CC=CCC(C)OC(=O)CC(OC(=O)CC)C3OC)C(O)C2N(C)C)OC(C)C1OC(=O)CC (stereo not drawn) [Compound 7, 3, 4"-di-O-propionyl-3"-O-butyrylspiramycin I] | 5 mice out of 10 mice | 1.56 μ g/ml | 1.56 μ g/ml | > 100 μ g/ml | 3.12 μ g/ml | > 100 μ g/ml | > 100 μ g/ml | < 0.1 μ g/ml |  | 
3 | CCCC(=O)OC1C(C)OC(OC2C(C)OC(OC3C(CC=O)CC(C)C(OC4CCC(N(C)C)C(C)O4)C=CC=CCC(C)OC(=O)CC(OC(C)=O)C3OC)C(O)C2N(C)C)CC1(C)OC(C)=O (stereo not drawn) [Compound 2, 3, 3"-di-O-acetyl-4"-O-butyrylspiramycin I] | 5 mice out of 10 mice | 1.56 μ g/ml | 1.56 μ g/ml | > 100 μ g/ml | 1.56 μ g/ml | 100 μ g/ml | > 100 μ g/ml | < 0.1 μ g/ml |  | 
4 | CCC(=O)OC1C(C)OC(OC2C(C)OC(OC3C(CC=O)CC(C)C(OC4CCC(N(C)C)C(C)O4)C=CC=CCC(C)OC(=O)CC(OC(C)=O)C3OC)C(O)C2N(C)C)CC1(C)OC(C)=O (stereo not drawn) [Compound 1, 3, 3"-di-O-acetyl-4"-O-propionylspiramycin I] | 5 mice out of 10 mice | 3.12 μ g/ml | 1.56 μ g/ml | > 100 μ g/ml | 3.12 μ g/ml | > 100 μ g/ml | > 100 μ g/ml | < 0.1 μ g/ml |  | 
5 | CCC(=O)OC1CC(=O)OC(C)CC=CC=CC(OC2CCC(N(C)C)C(C)O2)C(C)CC(CC=O)C(OC2OC(C)C(OC3CC(C)(OC(C)=O)C(OC(=O)CC)C(C)O3)C(N(C)C)C2O)C1OC (stereo not drawn) [Compound 8, 3"-O-acetyl-3, 4"-di-O-propionylspiramycin I] | 10 mice out of 10 mice | 3.12 μ g/ml | 3.12 μ g/ml | > 100 μ g/ml | 3.12 μ g/ml | > 100 μ g/ml | > 100 μ g/ml | 0.2 μ g/ml | more excellent therapeutic effect than acetylspiramycin and 3, 3", 4"-tri-O-acetylspiramycin I | 
6 | CCC(=O)OC1CC(=O)OC(C)CC=CC=CC(OC2CCC(N(C)C)C(C)O2)C(C)CC(CC=O)C(OC2OC(C)C(OC3CC(C)(OC(=O)CC)C(OC(=O)CC)C(C)O3)C(N(C)C)C2O)C1OC (stereo not drawn) [Compound 4, 3, 3", 4"-tri-O-propionylspiramycin I] | 10 mice out of 10 mice | 1.56 μ g/ml | 1.56 μ g/ml | > 100 μ g/ml | 1.56 μ g/ml | > 100 μ g/ml | > 100 μ g/ml | < 0.1 μ g/ml | more excellent therapeutic effect than acetylspiramycin and 3, 3", 4"-tri-O-acetylspiramycin I | 
7 | COC1C(OC(C)=O)CC(=O)OC(C)CC=CC=CC(OC2CCC(N(C)C)C(C)O2)C(C)CC(CC=O)C1OC1OC(C)C(OC2CC(C)(OC(C)=O)C(OC(C)=O)C(C)O2)C(N(C)C)C1O (stereo not drawn) [3, 3", 4"-tri-O-acetylspiramycin, 3, 3", 4"-tri-O-acetylspiramycin I] |  |  |  |  |  |  |  |  |  | 69.5 mg/kg
